# Conditions: buffer; pH 7.4; 200.0 µM
row,Compound,solubility kinetic [µg/mL]
1,COc1ccccc1Nc1c2c(nc3ccccc13)CCC2,37.4
2,CCc1ccc(N2CC(C(=O)OC)CC2=O)cc1 (stereo not given),> 37.1
3,Cl.OC(CNCc1cccnc1)COc1ccc2ccccc2c1 (stereo not given),43.5
4,CCOc1ccc(S(=O)(=O)N2CCN(C(=O)c3ccc(C)c(S(=O)(=O)N4CCOCC4)c3)CC2)cc1,19.3
5,O=C(NCc1ccccc1)C(=O)Nc1cccc(C(=O)O)c1,> 44.7
6,CCN1C(=O)CSC1=Nc1ccccc1Cl,27.9
7,O=C(Nc1ccccc1NC(=O)c1ccco1)c1ccccc1,17.1
8,CCOCCCNCc1cc(Cl)ccc1OCC.Cl,> 46.2
9,CN1CCCN(C(=O)CNC(=O)Cc2ccccc2)CC1,> 43.4
10,Cc1c(-c2nc(-c3ccc(C(C)(C)C)cc3)no2)n(C)oc1=O,< 0.2
11,CC(=O)c1ccc(NC(=O)C(Cc2ccccc2)n2cccc2)cc1 (stereo not given),1.6
12,Cc1cccc(N(Cc2cc3ccccc3[nH]c2=O)C(=O)c2cccs2)c1,< 0.4
13,CCCC12CN3CC(C)(CN(C1)C3c1ccc([N+](=O)[O-])o1)C2=O (stereo not given),> 47.9
14,COc1ccc(Nc2nc(N)c([N+](=O)[O-])c(NCc3ccccc3)n2)cc1,< 0.1
15,CCNC(=S)NNC(=O)c1nn(C)c(C)c1Cl,> 41.4
16,CCc1noc(C)c1C(=O)Nc1nc(-c2ccc(F)cc2)c(C)s1,0.3
17,N#Cc1ccc(C(=O)OCC(=O)N2CCCCCC2)cc1,> 42.9
18,C=CCNC(=O)c1cc2sccc2n1C,> 33
19,CC1=C(C(=O)OC2CCCCC2)C(c2ccccc2F)NC(=O)N1 (stereo not given),0.5
20,Cc1ccc(C)c(S(=O)(=O)N2CCC3(CC2)OCCO3)c1,> 46.7

row,Compound,solubility kinetic [µg/mL]
1,Cc1ccc(C(=O)NC2(O)C(=O)c3ccccc3C2=O)cc1C,> 46.4
2,COc1ccccc1NC(=S)Nc1cccc2cnccc12,40.9
3,N#Cc1ccccc1COC(=O)c1ccc2c(c1)OCO2,5.2
4,CCOc1ccc(S(=O)(=O)NCCCl)cc1,> 39.6
5,CS(=O)(=O)c1cccc(C(=O)OCC(=O)NC(=O)Nc2ccccc2F)c1,5.2
6,CCCc1ccc(C(C)NC(=S)NC2CCCCC2)cc1 (stereo not given),1.2
7,CC(=O)Nc1cccc(C(=O)/C=C/c2ccc[nH]2)c1,> 38.1
8,C=CCC(O)(CC=C)C(C)N.Cl (stereo not given),> 28.8
9,Cl.c1ccc(CCNCc2cccnc2)cc1,35.3
10,CCOc1ccccc1NC(=O)C(c1ccccc1)N1CCN(CC(=O)N2CCCC2)CC1 (stereo not given),> 67.6
11,O=C(Nc1ccc(Cl)c(Cl)c1)c1ccccc1NC(=O)C1CC=CCC1C(=O)O (stereo not given),> 65
12,Cc1cc(C(=O)N2CCN(c3ccc([N+](=O)[O-])cc3)CC2)n[nH]1,> 47.3
13,CN1C(=O)C(c2ccc([N+](=O)[O-])cc2[N+](=O)[O-])C(=O)N(C)C1=O,> 48.3
14,Cc1ccc(S(=O)(=O)N(C)c2ccc3ccccc3c2)cc1,1.6
15,Cc1ccc(Oc2c(C)nc(-c3ccccc3)[nH]c2=O)cc1,1
16,O=C(Cc1cccs1)NCCc1ccc(Cl)cc1,40.5
17,CCc1ccc(C2C(C#N)=C(N)Oc3cc(N)ccc32)cc1 (stereo not given),2.4
18,O=C(CSc1nnc(NC(=O)c2c(F)cccc2F)s1)NC1CC1,> 55.6
19,Cc1cc(OCCCC(=O)NCCc2ccccn2)ccc1Cl,> 49.9
20,CC1=C(C#N)S(=O)(=O)C(C#N)C(c2ccccc2)C1 (stereo not given),30.1

row,Compound,solubility kinetic [µg/mL]
1,COCC(=O)Nc1ccc(N2CCOCC2)c(S(=O)(=O)Nc2ccccc2OC)c1,> 65.3
2,COc1ccccc1NC(=O)NC1CCS(=O)(=O)C1 (stereo not given),> 42.6
3,CCC(C)c1ccc(NC(=O)NCc2cccnc2)cc1 (stereo not given),41
4,CC(NC(=O)CCc1c[nH]c2ccccc12)c1ccccc1 (stereo not given),> 43.9
5,Cc1ccc(NS(=O)(=O)c2cccc3cccnc23)c(Cl)c1,1.1
6,FC(F)(F)c1nc2ccccc2[nH]1,> 27.9
7,CC(NC(=O)c1ccc(N)cc1)c1ccccc1 (stereo not given),> 36
8,O=c1cnnc(Nc2ccccc2)[nH]1,> 28.2
9,O=C(Nc1cccc(F)c1)NC1CCCc2ccccc21 (stereo not given),2.1
10,Cc1cccc(C)c1NC(=O)CN1CCN(C(=O)c2ccc(OCc3cn4ccccc4n3)cc2)CC1,> 74.6
11,CC(NC(=O)c1ccncc1)c1ccc(Br)cc1 (stereo not given),> 45.8
12,CCc1ccc(C(=O)N2CCCN(C)CC2)s1,> 37.9
13,O=C(COC(=O)c1ccc(Cl)nc1)Nc1ccc2c(c1)CCC2,5.3
14,CC(=O)OCC(=O)Nc1ccccc1OC(F)F,> 38.9
15,CC1CCC(NC(=O)c2ccc(COc3ccccc3)o2)CC1 (stereo not given),1.7
16,O=C(NC(Cc1ccccc1)C(=O)NC1CC1)OCc1ccccc1 (stereo not given),11.5
17,Nc1cc(N)nc(SCC(=O)Nc2ccc3c(c2)OCO3)n1,47.2
18,COC(=O)CNC(c1ccccc1)c1cc(Br)ccc1N (stereo not given),5.5
19,S=C(NCc1ccccc1)NC1CCSc2ccccc21 (stereo not given),1.2
20,CSc1ccccc1C(=O)N1CCCCC1,> 35.3

# From PubChem BioAssay AID1996
